Results reported in ChEMBL document CHEMBL3507680, “University of Dundee, Gates Library screen for HepG2 cell viability”.

Assay: Human HepG2 cell viability assay in 384 well format
Type: toxicity, cell-based
Design: dose 125 nL, time 70.5 hour; concentration not given beside the values
Details: HepG2 cells, read-out: Inhibition

SMILES | cytotoxicity at 70.5 h [%]
CSc1cccc(CN2CCC(CCC(=O)NC3CC3)CC2)c1 | -7.44
O=C(CCN1CCCC(CO)(CC2CC2)C1)NCc1cccc(Cl)c1 (stereo unspecified) | -7.94
Cc1ccc(C2(O)CCN(Cc3nc(C)n4ccccc34)CC2)nc1 | -9.79
CCn1c(Cn2cncn2)nnc1C1CCN(Cc2ccccn2)CC1 | 6.14
CCCc1n[nH]c(=O)n1[C@@H](CC)c1ccccc1 | -10.8
Oc1ccc(-c2c(-c3ccccc3)ncn2C[C@H]2CCCN2)cc1 | -2.17
CCCn1cc(C(=O)NC(C(=O)O)c2ccccc2C(F)(F)F)c(C)n1 (stereo unspecified) | -8.7
Cc1nsc(NC(=O)N2CCN(Cc3ccccc3F)C(=O)C2)n1 | -8.72
Cc1cc(C)nc(NC(C)Cc2cnccn2)n1 (stereo unspecified) | -14
CCCn1ccnc1CN1CCCC1c1ccccn1 (stereo unspecified) | -4.45
CN(C)[C@H]1CCN(c2nc(C(C)(C)C)nc3c2cnn3C)C1 | 27.9
Cc1[nH]c(=O)[nH]c(=O)c1CN1CCCC(CCc2ccc(F)cc2F)C1 (stereo unspecified) | -9.69
COc1ccccc1OC1CN(C(=O)c2c(C)nc3ccc(C)cn23)C1 | -1.56
CC(C)(C)c1cc(CN2CCOC(CCc3ccccc3)C2)n[nH]1 (stereo unspecified) | -9.92
COc1cccn(Cc2nnc(-c3cccnc3)o2)c1=O | -1.16
CC(C)N1CCCC(C(=O)NC(C)(C)c2nnc(N)s2)C1 (stereo unspecified) | -12.2
CCc1c(C)nn(CCNC(=O)c2cc(C3CC3)n[nH]2)c1C | -2.41
CO[C@H]1C[C@@H](O)C12CCN(C(=O)CCSCc1ccc(F)cc1)CC2 | -18.7
CC(=O)NCCNC(=O)c1cc(COc2ccccc2)[nH]n1 | 1.84
CN(CCc1ccccn1)C(=O)c1cn(CCN2CCNCC2)nn1 | -10.7
COC(=O)NCC(=O)N(C)Cc1csc(-c2cccs2)n1 | 3.35
Cc1ccsc1CN(CCN(C)C)C(=O)c1cc2ccccc2[nH]1 | 4.92
c1ccc2c(c1)nnn2CCCNC1CCOC2(CCOCC2)C1 (stereo unspecified) | -5

SMILES | cytotoxicity at 70.5 h [%]
CCCc1cc(C(=O)N(Cc2cccnc2)C2CCCCC2)[nH]n1 | -7.56
CCC(CO)(CO)NC(=O)C1CCC(=O)N(CCc2ccccc2)C1 (stereo unspecified) | -10.4
CCC(O)c1nc2c([nH]1)CC(C)(C)CNC2=O (stereo unspecified) | 13
CCN(CC)Cc1cc(C(=O)N2CCCC(O)(CO)C2)c(C)o1 (stereo unspecified) | -7.27
O=S1(=O)CCC(n2cc(C3=CCN(CCn4cccc4)CC3)cn2)C1 (stereo unspecified) | 26.8
Cc1ccc(C)c2c(O)cc(CN3CCNC(=O)C3C)nc12 (stereo unspecified) | -8.28
CN(CC1CCCCO1)c1nc(-c2cccnc2)nc2c1CCNC2 (stereo unspecified) | -17.5
CC(CN1CCOCC1)NC1CCN(Cc2cccc(O)c2)CC1 (stereo unspecified) | -8.8
CCCN1CCC(Cc2nn3c(C(C)C)nnc3s2)CC1 | 10.4
CC(C)c1nnc(NCc2cc3n(n2)CCN(C2CCCCC2)C3)s1 | -0.516
Cc1ccsc1CN1CC2(CCN(C(=O)C3CC3)CC2)CC1C(=O)O (stereo unspecified) | 10.8
Cc1nn(C)c(Oc2ccc(Cl)cc2)c1CN1CCC(CN)C1 (stereo unspecified) | -8.55
CCCN(Cc1nccn1C)C(=O)c1cnn[nH]1 | 7.26
CCCc1nnc(N[C@H](C)c2ccc(OC)cc2)o1 | -10.6
O=C(C1CCC1)N1CCC(C2CCN(Cc3ccc(Cl)cc3)C2)CC1 (stereo unspecified) | -3.08
Cc1nc(C)n(CCNS(=O)(=O)NCc2ccccc2)n1 | -15.5
COc1cc(C)ccc1OCc1nc(C(=O)N2CCCO2)co1 | 10.4
CCc1cnc(NCC(CC)N2CCOCC2)nc1 (stereo unspecified) | -6.68
CCC[C@H]1CN(CCS(C)(=O)=O)C[C@@H]1NC(=O)c1ccccc1F | -2.49
COc1cc(C2CC(=O)Nc3c2nc2n3CCCC2)ccc1O (stereo unspecified) | -7.4
CCC(CO)N(Cc1cccnc1)Cc1ccc(-c2ccn[nH]2)s1 (stereo unspecified) | -7.15
Cn1ccn2ncc(C(=O)NCc3cccnc3N3CCCC(O)C3)c12 (stereo unspecified) | -18.3
CN(Cc1ccon1)CC1CCOc2ccccc2C1 (stereo unspecified) | -8.84

SMILES | cytotoxicity at 70.5 h [%]
CS(=O)(=O)N1CCC(Oc2ccc(C(=O)NC3CCCC3)cc2Cl)CC1 | -7.15
Cn1ccnc1CN1CCN(CC2CC2)[C@@H]2CS(=O)(=O)C[C@@H]21 | -7.65
CC(c1cccs1)N(C)C(=O)c1cc(CN(C)Cc2ccccc2)on1 (stereo unspecified) | -4.76
O=C(Cc1c[nH]c2ccccc12)NCC1CCN(Cc2c[nH]cn2)C1 (stereo unspecified) | -6.01
Cc1cc(CN2CC3(CCN(C(=O)C4CC4)CC3)CC2C(=O)O)oc1C (stereo unspecified) | -7.26
O=C(NC1CCCNC1)c1cc(COc2cccc(C(F)(F)F)c2)[nH]n1 (stereo unspecified) | -0.657
Cc1ccccc1-n1cc(-c2ccnc(N[C@@H](CO)C(C)C)n2)cn1 | -7.32
CCCn1ncc(C(=O)NCCc2[nH]nc3c2CCCC3)c1C | -5.62
C[C@@H]1CN(C2CCCCC2)CC[C@@]1(O)C1CCOCC1 | -16
O=C1NCC2(CCCN(Cc3ccccc3OCCO)C2)O1 (stereo unspecified) | -8.84
CCC(CO)N(Cc1ccccn1)C(=O)c1ncccc1C (stereo unspecified) | 15.2
COc1cccc(OCC2CCCN(C(=O)c3ncc(F)cc3F)C2)c1 (stereo unspecified) | 1.3
COc1ccc(CCN2C(=O)O[C@@H]3CN(C4CCSCC4)C[C@@H]32)cc1 | -6.37
Cc1cnc(C)c(N2CCCC(CO)(Cc3ccccc3C)C2)n1 (stereo unspecified) | 11.4
O=C(N[C@@H]1CCN(c2ncc(Cl)cc2Cl)C[C@H]1O)c1cnccn1 | -2.1
CCCc1ccc(CN2CCC3(CCC(=O)N(C(C)C(=O)O)C3)CC2)o1 (stereo unspecified) | -4.9
CN(C)CC(C)(C)Cn1cnc(-c2ccccc2)c1-c1ncc[nH]1 | 11.7
Cc1ccc(C(=O)O)c(N2Cc3cnc(C(C)(C)C)nc3C2)n1 | -14.8
Cc1ccc(C2CC(=O)NCc3nc(N)sc32)cc1C (stereo unspecified) | -5.03
COc1ccc2c(c1)OCC(CNC(=O)c1ccncc1)C2 (stereo unspecified) | 13.9
CCCc1nc(C)cc(N2CCC3(CCC(=O)N(CCOC)C3)CC2)n1 | -9.62
Cn1nccc1C(=O)N1CCOC(Cc2cccc(C(F)(F)F)c2)C1 (stereo unspecified) | 4.43
CCCn1nc(C2CCNCC2)n(Cc2ccccc2)c1=O | -7.28

SMILES | cytotoxicity at 70.5 h [%]
O=C(CCn1cnnc1)N1CCCC(c2ncc[nH]2)C1 (stereo unspecified) | -2.12
CN(Cc1ccccc1)C1(C(=O)O)Cc2ccccc2C1 | -1.88
CC(C)C(=O)N1CCN(C(=O)c2cc(C(C)C)on2)[C@H]2CS(=O)(=O)C[C@H]21 | 14.2
O=C1OC2(CCN(C3CCCOC3)CC2)CN1CCc1ccccc1 (stereo unspecified) | 5.31
CN(C)c1nc2c(c(=O)[nH]1)CCN(C(=O)c1cccc3nccnc13)C2 | 2.31
CCn1nc(C)c(CCn2ccnc2-c2cc3n(n2)CCCNC3)c1C | -3.85
CC(Cn1cncn1)NCc1nncn1C1CCCCC1 (stereo unspecified) | -1.66
COc1ccc(Cl)cc1C(=O)N1CCOC2(CNCCOC2)C1 (stereo unspecified) | -0.31
CC(C)=CCN1C[C@H]2CC[C@@H]1CN(C(=O)c1c[nH]c(=O)c(Cl)c1)C2 | -1.3
O=C(C1CCC1)N1CCN(Cc2ccsc2)[C@H]2CS(=O)(=O)C[C@H]21 | -0.678
Cc1ccc(C#N)c(N2CCC(c3nccn3CCN(C)C)CC2)n1 | -7.04
Cc1nc(CCN(C)C(=O)C2COc3ccccc3C2)no1 (stereo unspecified) | 17.3
Cc1nccn1Cc1nnc(C2CCCN(Cc3cccnc3)C2)n1C (stereo unspecified) | 5.17
Cc1nc(N)sc1C(=O)N1CCCC(c2nccn2CCCN(C)C)C1 (stereo unspecified) | -5.45
CCNC(=O)[C@@H]1C[C@@H](NC(=O)Cc2ccccn2)CN1CCCSC | 14.8
CCC1CN(C(=O)c2ccc(Cl)cc2O)CCN1C(C)C (stereo unspecified) | -6.93
O=C(CCCc1cn[nH]c1)N1CCOCC(O)C1 (stereo unspecified) | 0.158
CCc1c(C)nn(CCNC(=O)C2CCCN(C(=O)N(C)C)C2)c1C (stereo unspecified) | -10.4
c1cn(Cc2nnc(C3CCN(C4CCOCC4)CC3)n2C2CC2)cn1 | -4.93
CCN1CCn2nc(CCC(=O)N3CCCC3)cc2C1 | -4.63
CN1CCC(c2nnc(CN3CCC(O)CC3)n2C)CC1 | -5.78
Cc1scc(C(=O)N2CCC3(CCCN(C)C3=O)C2)c1-c1ccccc1 (stereo unspecified) | -11.2
Cc1cc(C)nc(CCNC(=O)[C@H]2CNC[C@@H](C(=O)N3CCCC3)C2)n1 | 9.67

SMILES | cytotoxicity at 70.5 h [%]
CC(C)(C)c1ccn(C2(C(=O)O)CCN(c3nccc(N)n3)CC2)n1 | -3.64
Cc1nccn1CCC1CCCCN1Cc1ccc(N(C)C)nc1 (stereo unspecified) | -10.4
Cc1nc[nH]c1CN1CCN(C(=O)CCC(F)(F)F)[C@H]2CS(=O)(=O)C[C@H]21 | -9.24
O=C1N(Cc2cccc(F)c2F)CCCC1(O)CN1CCCOCC1 (stereo unspecified) | -1.1
COc1ccc(NC(=O)CCC2CCCN(Cc3ncon3)C2)cc1Cl (stereo unspecified) | -7.33
Cn1cc(CN2CC[C@@H]3[C@@H](CCC(=O)N3CCc3c[nH]cn3)C2)cn1 | -6.69
CN(C)[C@H]1CCCCN(C(=O)CCc2csc(N)n2)C1 | -6.16
CC(C)(C)n1cc(C2=CCN(CCc3ccccc3)CC2)cn1 | -3.25
CCc1c(C)sc(NC(=O)CN2CCN(CC)CC2)c1C(=O)OC | -2.99
O=S(=O)(Cc1ccccc1F)NCCN1CCOCC1 | -2.45
COc1cccc(CN2CCC(c3nccn3C(C)C)CC2)c1 | -13.1
Cc1cc(F)ccc1OC1(C(=O)O)CCN(Cc2ccncc2)CC1 | -8.64
COCCN(C)CC(=O)N1C[C@H]2CC[C@@H]1CN(C(=O)c1ccncc1)C2 | -10.1
Nc1nc(CCC(=O)N2CCOC(CC3CCCCC3)C2)cs1 (stereo unspecified) | -2.5
COc1ccc(-n2nnc(C(=O)NC(C)C)c2C2CC2)cc1 | -6.86
COC(=O)C1CCN(C(=O)c2ccc(C)c(NS(C)(=O)=O)c2)CC1 | -8.87
CCCNC(=O)c1ccc(NC(=O)c2cccc(OCC)c2)cc1 | -7.63
O=S(=O)(Cc1ccccc1F)NCCCN1CCCCC1 | -1.2
CCC(NC(=O)C1CCN(S(C)(=O)=O)CC1)c1ccc(OC)c(OC)c1 (stereo unspecified) | -7.44
